{
  "source": "paper PMC9626498",
  "about": "(Scientific Reports, 2022)",
  "key": {"[1]": {"molecular_target": "acetylcholinesterase (AChE) (Electrophorus electricus, UniProt O42275)", "sequence (O42275 24-633)": "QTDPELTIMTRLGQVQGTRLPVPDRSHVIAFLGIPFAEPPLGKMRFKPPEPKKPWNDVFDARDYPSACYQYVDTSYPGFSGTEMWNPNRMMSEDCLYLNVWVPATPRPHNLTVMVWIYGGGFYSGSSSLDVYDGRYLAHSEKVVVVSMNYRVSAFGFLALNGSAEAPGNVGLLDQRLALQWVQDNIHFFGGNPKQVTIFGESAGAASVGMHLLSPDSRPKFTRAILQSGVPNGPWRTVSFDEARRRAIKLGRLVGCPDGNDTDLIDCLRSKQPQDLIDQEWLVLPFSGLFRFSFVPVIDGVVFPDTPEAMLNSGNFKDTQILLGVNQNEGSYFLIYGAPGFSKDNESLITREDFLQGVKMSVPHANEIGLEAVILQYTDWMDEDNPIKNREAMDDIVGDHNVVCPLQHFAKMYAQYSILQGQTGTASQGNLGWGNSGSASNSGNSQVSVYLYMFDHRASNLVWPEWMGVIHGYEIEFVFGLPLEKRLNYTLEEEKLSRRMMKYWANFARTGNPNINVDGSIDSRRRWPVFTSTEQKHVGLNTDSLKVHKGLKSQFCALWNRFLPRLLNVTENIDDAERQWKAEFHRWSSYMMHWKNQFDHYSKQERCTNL", "experiment": "modified Ellman spectrophotometric assay", "type": "biochemical"}, "[2]": {"molecular_target": "butyrylcholinesterase (BChE) (Equus caballus, UniProt P81908)", "sequence (P81908 whole entry)": "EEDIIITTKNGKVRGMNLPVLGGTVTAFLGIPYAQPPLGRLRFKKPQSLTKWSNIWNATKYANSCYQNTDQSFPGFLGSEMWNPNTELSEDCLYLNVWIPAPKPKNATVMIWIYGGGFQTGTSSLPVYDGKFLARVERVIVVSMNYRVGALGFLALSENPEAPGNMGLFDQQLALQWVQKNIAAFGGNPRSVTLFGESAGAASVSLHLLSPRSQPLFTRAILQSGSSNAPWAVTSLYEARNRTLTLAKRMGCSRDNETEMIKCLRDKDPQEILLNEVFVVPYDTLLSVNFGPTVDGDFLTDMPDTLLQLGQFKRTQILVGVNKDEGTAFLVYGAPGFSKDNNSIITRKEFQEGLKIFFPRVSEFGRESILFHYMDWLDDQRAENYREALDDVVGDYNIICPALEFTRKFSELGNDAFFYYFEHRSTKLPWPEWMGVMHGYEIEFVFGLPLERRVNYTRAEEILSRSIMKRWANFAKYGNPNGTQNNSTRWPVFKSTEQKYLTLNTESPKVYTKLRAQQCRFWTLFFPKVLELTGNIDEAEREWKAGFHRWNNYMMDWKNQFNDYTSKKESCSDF", "experiment": "modified Ellman spectrophotometric assay", "type": "biochemical"}},
  "data": [
    {"smiles": "C[C@@H]1O[C@@H](O[C@H]2C(=O)c3c(O)cc(O)cc3O[C@@H]2c2cc(O)c(O)c(O)c2)[C@H](O)[C@H](O)[C@H]1O", "note": "[compound 1, dihydromyricetin 3-O-rhamnoside]", "values": [
      {"measurement": "IC50", "setting": "[1]", "result": "70 ± 8", "unit": "µM"},
      {"measurement": "IC50", "setting": "[2]", "result": "71 ± 4", "unit": "µM"}
    ]}
  ]
}
